Measurements reported in patent US4965280A, “Antifungal carbinols” (E. I. Du Pont de Nemours and Company, priority 1989, dated 1990).
Converted amounts (≈) assume the structure as drawn. Read-outs that look alike come from different tables or passages of the source.

Experiments:
[1] = tested on: Candida albicans ATCC 11651; test: In vivo systemic Candida infection in mice, primary assay; set-up: species or system Candida albicans; CF-1 female mice; settings: Candida albicans, 150 mg/kg per day, read-out: % Survival
Method in brief: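 CF-1 female mice (20 g, 10 per group) were infected IV with 0.2 ml of 1×10^7/ml C. albicans ATCC 11651, then given test compound subcutaneously at 50 or 150 mg/kg/day at 1 and 6 h post-infection and once daily for three more days. Survival was followed for 21 days against infected untreated mice; ≥70% protection at 14 days was scored active.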

Venturia inaequalis = test: Example A apple scab; assay type: in vivo; settings: 100 PPM, read-out: disease control rating, Ex. A
Method in brief: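 Test compounds were dissolved in acetone (6% of final volume) and suspended at 100 or 20 ppm in purified water containing 250 ppm of the surfactant TREM 014 (polyhydric alcohol esters). Apple seedlings were sprayed with this suspension to the point of run-off.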

[2] = tested on: Cercosporidium personatum; test: Example B Peanut Late Leafspot; assay type: in vivo; settings: Nothopassalora personata; 100 PPM; read-out: disease control rating, Ex. B
Method in brief: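 Compounds were dissolved in acetone (6% of final volume) and suspended at 100 or 20 ppm in purified water containing 250 ppm TREM 014 surfactant (polyhydric alcohol esters). The suspension was sprayed to run-off on peanut seedlings.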

Botrytis cinerea = test: Example C bean grey mold; assay type: in vivo; settings: Botrytis cinerea, 24 h, 100 PPM; read-out: disease control rating, Ex. C
Method in brief: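 Test compounds were taken up in acetone (6% of final volume) and suspended at 100 or 20 ppm in purified water containing 250 ppm TREM 014 surfactant (polyhydric alcohol esters). Broad bean seedlings were sprayed with this suspension until run-off.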

[3] = tested on: Erysiphe graminis f. sp. tritici; test: Example D wheat powdery mildew; assay type: in vivo; settings: Blumeria graminis, 144 h; 100 PPM; read-out: disease control rating, Ex. D
Method in brief: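 Compounds were dissolved in acetone (6% of final volume), then suspended at 100 or 20 ppm in purified water containing 250 ppm TREM 014 surfactant. Wheat seedlings were sprayed with this suspension to run-off.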

Pyricularia oryzae = test: whole plant or invertebrate; assay type: in vivo; settings: Pyricularia oryzae, 120 h, read-out: disease control rating, Ex. E, 100 PPM
Rhizoctonia solani [4] = test: Example F rice sheath blight; assay type: in vivo; settings: Rhizoctonia solani, 144 h, 100 PPM; read-out: disease control rating, Ex. F
Method in brief: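 Compounds, dissolved in acetone at 6% of final volume, were suspended at 100 or 20 ppm in purified water with 250 ppm polyhydric alcohol ester surfactant (TREM 014). Rice seedlings were sprayed with this suspension to run-off.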

Puccinia recondita = test: Example G wheat leaf rust; assay type: in vivo; settings: 100 PPM, read-out: disease control rating, Ex. G
Phytophthora infestans = test: whole plant or invertebrate; assay type: in vivo; settings: Phytophthora infestans, in Solanum lycopersicum, read-out: disease control rating, Ex. H, 100 PPM
Plasmorpara viticola = test: Example I grape downy mildew; assay type: in vivo; settings: read-out: disease control rating, Ex. I
Method in brief: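 Applied as a foliar spray to run-off on grape seedlings, the compounds were formulated at 100 or 20 ppm in water containing 250 ppm TREM 014, with acetone making up 6% of the volume.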

Pythium aphanadermatum = test: Example J cucumber damping off; assay type: in vivo; settings: Pythium, 336 h; 5 kg/ha; read-out: disease control rating, Ex. J
Method in brief: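 This cucumber damping-off test used soil and seeds infested with a sand–cereal preparation carrying mycelium of Pythium aphanadermatum. Incubation took place in a growth chamber held at 30° C. for 14 days. Afterwards, the extent of disease was scored as a disease control rating.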

Rhizoctonia solani [5] = test: Example K cotton blight; assay type: in vivo; settings: 336 h, 5 kg/ha, read-out: disease control rating, Ex. K
Experimental: […] Seeds and soil were then inoculated with a mixture of sand, cereal and mycelium of the fungus Rhizoctonia solani, causal agent of cotton blight, and incubated in a growth chamber at 30° C. for 14 days. Disease ratings were then made.

[6] = tested on: Fusarium oxysporum f. sp. cucumerinum; test: Example L cucumber wilt; assay type: in vivo; settings: 336 h, 5 kg/ha, read-out: disease control rating, Ex. L
Experimental: […] Seeds and soil were then inoculated with a mixture of sand, cereal and mycelium of the fungus Fusarium oxysporum f. sp. cucumerinum, causal agent of cucumber wilt, and incubated in a growth chamber at 30° C. for 14 days. Disease ratings were then made.

Sclerotium rolfsii = test: Example M southern blight; assay type: in vivo; settings: Agroathelia rolfsii, 336 h; 5 kg/ha; read-out: disease control rating, Ex. M
Experimental: […] Seeds and soil were then inoculated with a mixture of sand, cereal and mycelium of the fungus Sclerotium rolfsii, causal agent of sourthern blight, and incubated in a growth chamber at 30° C. for 14 days. Disease ratings were then made.

[7] = tested on: Candida albicans ATCC 11651; test: In vitro antifungal MIC, microtiter broth dilution; settings: for MIC: Candida albicans, ATCC11651, 24 h, read-out: MIC values, C. albicans, 30°, 24 hours
Experimental: In vitro activity (Table 5) is expressed in terms of the minimal inhibitory concentration (MIC) of the test compound which inhibits the growth of yeasts and fungi.
The target organisms, Candida albicans ATCC 11651 and Aspergillus fumigatus ATCC 28214 are standardized, [V. Bezjak, J. Clinical Micro., 21 509-512 (1984)], to a concentration of 10^7 organisms/ml and maintained at -70° until use. Test compounds are solubilized in dimethyl sulfoxide (DMSO) and diluted in Eagle's Minimum Essential Medium (EMEM) broth to achieve a final concentration of 200 μg/ml. Stock solutions of standard antifungal agents are stored at -70° and diluted in EMEM as required.
The in vitro assay utilizes a microtiter broth dilution technique [L. Polonelli and G. Morace, Mycopathologia, 86, 21-28 (1984)] and C. […] The appropriate wells are inoculated with the required organism (C. albicans at 1×10^4 organisms/ml and A. fumigatus at 5×10^5 organisms/ml) and the assay incubated at 30° for 24 hours.

[8] = tested on: Aspergillus fumigatus ATCC 28214; test: In vitro antifungal MIC, microtiter broth dilution; settings: for MIC: Aspergillus fumigatus, ATCC28214, 24 h, read-out: MIC values, A. fumigatus, 30°, 24 hours

C=C(c1ccc(F)cc1)C(O)(Cn1cncn1)c1ccccc1Cl (stereo not drawn) [Example 646]
responders at 150 mg/kg ([1]; ATCC11651, 168 h, day 7): 100% | responders at 150 mg/kg ([1]; ATCC11651, 336 h, day 14): 100% | responders at 150 mg/kg ([1]; ATCC11651, 504 h, day 21): 70% | pest or weed control at 100 ppm (Venturia inaequalis): 100% | pest or weed control at 100 ppm [2]: 100% | pest or weed control at 100 ppm (Botrytis cinerea): 95% | pest or weed control at 100 ppm [3]: 98% | pest or weed control at 100 ppm (Pyricularia oryzae): 97% | pest or weed control at 100 ppm (Rhizoctonia solani [4]): 61% | pest or weed control at 100 ppm (Puccinia recondita): 100% | pest or weed control at 100 ppm (Phytophthora infestans): 0% | pest or weed control at 100 ppm (Plasmorpara viticola): 99% | pest or weed control at 5000 g/ha (Pythium aphanadermatum): 100% | pest or weed control at 5000 g/ha (Rhizoctonia solani [5]): 0% | pest or weed control at 5000 g/ha [6]: 0% | pest or weed control at 5000 g/ha (Sclerotium rolfsii): 0% | MIC [7]: 0.03 µg/mL (≈ 0.0873 µM) | MIC [8]: 0.4 µg/mL (≈ 1.16 µM)

C=C(c1ccc(F)cc1)C(Cn1cncn1)(OC)c1ccc(F)cc1 (stereo not drawn) [Example 359]
responders at 150 mg/kg ([1]; ATCC11651, 168 h, day 7): 100% | responders at 150 mg/kg ([1]; ATCC11651, 336 h, day 14): 80% | responders at 150 mg/kg ([1]; ATCC11651, 504 h, day 21): 80% | pest or weed control at 100 ppm (Venturia inaequalis): 72% | pest or weed control at 100 ppm [2]: 100% | pest or weed control at 100 ppm (Botrytis cinerea): 83% | pest or weed control at 100 ppm [3]: 95% | pest or weed control at 100 ppm (Pyricularia oryzae): 88% | pest or weed control at 100 ppm (Rhizoctonia solani [4]): 62% | pest or weed control at 100 ppm (Puccinia recondita): 100% | pest or weed control at 100 ppm (Phytophthora infestans): 0% | pest or weed control at 100 ppm (Plasmorpara viticola): 0% | pest or weed control at 5000 g/ha (Pythium aphanadermatum): 0% | pest or weed control at 5000 g/ha (Rhizoctonia solani [5]): 0% | pest or weed control at 5000 g/ha [6]: 0% | pest or weed control at 5000 g/ha (Sclerotium rolfsii): 0% | MIC [7]: 0.4 µg/mL (≈ 1.17 µM) | MIC [8]: 50 µg/mL (≈ 146 µM)

C=C(c1ccc(Cl)cc1)C(O)(Cn1cncn1)c1ccc(Cl)cc1 (stereo not drawn) [Example 27]
responders at 150 mg/kg ([1]; ATCC11651, 168 h, day 7): 100% | responders at 150 mg/kg ([1]; ATCC11651, 336 h, day 14): 100% | responders at 150 mg/kg ([1]; ATCC11651, 504 h, day 21): 100% | pest or weed control at 100 ppm (Venturia inaequalis): 62% | pest or weed control at 100 ppm [2]: 100% | pest or weed control at 100 ppm (Botrytis cinerea): 88% | pest or weed control at 100 ppm [3]: 98% | pest or weed control at 100 ppm (Pyricularia oryzae): 95% | pest or weed control at 100 ppm (Rhizoctonia solani [4]): 100% | pest or weed control at 100 ppm (Puccinia recondita): 100% | pest or weed control at 100 ppm (Phytophthora infestans): 24% | pest or weed control at 100 ppm (Plasmorpara viticola): 84% | pest or weed control at 5000 g/ha (Pythium aphanadermatum): 0% | pest or weed control at 5000 g/ha (Rhizoctonia solani [5]): 0% | pest or weed control at 5000 g/ha [6]: 0% | pest or weed control at 5000 g/ha (Sclerotium rolfsii): 0% | MIC [7]: ≤ 0.4 µg/mL | MIC [8]: 12.5 µg/mL (≈ 34.7 µM)

C=C(c1ccc(Cl)cc1)C(O)(Cn1cncn1)c1ccc(Cl)cc1Cl (stereo not drawn) [Example 26, 2-(2,4-Dichlorophenyl)-3-(4-chlorophenyl)-1-(1H-1,2,4-triazol-1-yl)-3-buten-2-ol]
responders at 150 mg/kg ([1]; ATCC11651, 168 h, day 7): 100% | responders at 150 mg/kg ([1]; ATCC11651, 336 h, day 14): 100% | responders at 150 mg/kg ([1]; ATCC11651, 504 h, day 21): 100% | pest or weed control at 100 ppm (Venturia inaequalis): 100% | pest or weed control at 100 ppm [2]: 100% | pest or weed control at 100 ppm (Botrytis cinerea): 96% | pest or weed control at 100 ppm [3]: 86% | pest or weed control at 100 ppm (Pyricularia oryzae): 31% | pest or weed control at 100 ppm (Rhizoctonia solani [4]): 61% | pest or weed control at 100 ppm (Puccinia recondita): 97% | pest or weed control at 100 ppm (Phytophthora infestans): 23% | pest or weed control at 100 ppm (Plasmorpara viticola): 86% | pest or weed control at 5000 g/ha (Pythium aphanadermatum): 0% | pest or weed control at 5000 g/ha (Rhizoctonia solani [5]): 25% | pest or weed control at 5000 g/ha [6]: 25% | pest or weed control at 5000 g/ha (Sclerotium rolfsii): 35% | MIC values, C. albicans ([7]; 30°, 24 hours): ≤ 0.4 µg/mL | MIC values, A. fumigatus ([8]; 30°, 24 hours): 12.5 µg/mL (≈ 31.7 µM)
